Assay: Oral delivery of fluorescein with 10 kDa polymer: bioavailability and recovery in blood, urine and feces
Format: in vivo, rat
Conditions: ingestion
Procedure: Eighteen rats have been selected and have been given either no polymer (rats 1, 2, 10, 11), or the polymer (10 kDa) at a dose of 5 mg/kg (rats 13-15), 50 mg/kg (rats 4-6, 12, 16-18) or 300 mg/kg (rats 3 and 7-9). Fluorescein has been either covalently coupled to the polymer (rats 4-9 and 13-18; labelled as PO or IV in the figures), or physically (non-covalently) adhered to the polymer (rats 3 and 12); labelled as PO* or IV* in the figures.
The polymer has been administered either per ingestion (PO or PO*) or by injection (IV or IV*). Blood concentration of the polymer-fluorescein (FIG. 1), or of the (potentially-free) fluorescein (FIG. 2) has been measured in the blood, in the feces (FIG. 4) and in urine (FIG. 3).

In the case of `O=C1OC2(c3ccc(O)cc3Oc3cc(O)ccc32)c2ccccc21` [free fluorescein, fluorescein], the “ingested fluorescein found in the feces” value (rats (FIG. 4)) was over 99% and the ingested fluorescein internalized (rats, without the polymer) was “less than 1%”.

— patent US20250073167A1, “A POLYMER TO INCREASE THE BIOAVAILABILITY OF A PHARMACEUTICAL COMPOUND” (CATALYA, priority 2022, published 2025)
